Assay [1] deals with T1, beta-catenin/TCF4 engagement (Homo sapiens, UniProt P35222).
T1 construct: expressed in transfected cells; host or cells: HEK293
T1 sequence (P35222 1-781): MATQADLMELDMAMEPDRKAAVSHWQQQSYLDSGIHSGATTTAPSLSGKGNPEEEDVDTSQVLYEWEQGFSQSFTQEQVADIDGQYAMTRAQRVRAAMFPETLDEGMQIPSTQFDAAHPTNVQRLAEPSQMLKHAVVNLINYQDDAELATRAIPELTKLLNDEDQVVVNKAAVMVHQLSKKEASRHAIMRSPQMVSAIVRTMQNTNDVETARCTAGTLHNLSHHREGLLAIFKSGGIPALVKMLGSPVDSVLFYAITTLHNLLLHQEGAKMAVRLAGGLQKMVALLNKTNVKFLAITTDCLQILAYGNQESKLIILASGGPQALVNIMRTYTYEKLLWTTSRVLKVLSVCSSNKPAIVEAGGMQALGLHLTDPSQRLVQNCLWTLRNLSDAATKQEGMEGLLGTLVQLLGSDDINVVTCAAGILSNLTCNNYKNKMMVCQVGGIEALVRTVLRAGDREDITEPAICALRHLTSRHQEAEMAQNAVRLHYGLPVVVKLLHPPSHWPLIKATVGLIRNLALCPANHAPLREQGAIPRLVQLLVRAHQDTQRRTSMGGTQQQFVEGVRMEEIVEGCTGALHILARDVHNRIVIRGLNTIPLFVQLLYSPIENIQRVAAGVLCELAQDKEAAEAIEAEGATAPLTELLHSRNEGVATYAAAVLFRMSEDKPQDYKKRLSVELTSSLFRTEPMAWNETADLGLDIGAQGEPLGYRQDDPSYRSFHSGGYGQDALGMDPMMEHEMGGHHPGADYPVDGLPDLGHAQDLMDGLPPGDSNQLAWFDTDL
Put plainly: Nano-BRET target engagement assay (B-cat-Halo & TCF4-Luc in HEK293 cells). In kind it is cell-based. Conditions: absolute IC50; read-out: NanoBRET Abs IC50.

Assay [2] deals with T2, full-length beta-Catenin (Uniprot ID P35222) (Homo sapiens, UniProt P35222).
T2 construct: 10 nM full-length beta-Catenin (Uniprot ID P35222)
T2 sequence (P35222 1-781): T1 sequence (P35222 1-781)
The assay can be described thus: Fluorescence polarization IC50 (beta-catenin / 5FAM-TCF4 10-53 competition). Conditions: fluorescence polarization; read-out: beta-Catenin FP IC50. It counts as binding. For orientation: Fluorescence polarisation rises when a labelled molecule tumbles more slowly, as on binding a larger partner.

The values below come from patent US20240116985A1, “STAPLED PEPTIDES AND METHODS THEREOF” (priority 2020, published 2024).

As usually defined, the IC50 is the midpoint of a concentration-inhibition curve.

As to `CC(=O)N1CCC[C@]12CC=CCCCC1(CCCC=CCCCOC(=O)N3CC[C@@](C(=O)N[C@@H](Cc4ccsc4)C(=O)N[C@@H](Cc4csc5ccccc45)C(=O)N[C@@H](CC(=O)N(C)C)C(N)=O)(C3)NC(=O)[C@H](CC(N)=O)NC(=O)[C@H](Cc3ccccc3)NC(=O)[C@H](C)NC(=O)C(C)(C)NC(=O)[C@H]([C@@H](C)O)NC(=O)[C@H](CC(N)=O)NC1=O)NC(=O)[C@H](CC(C)(C)C)NC(=O)[C@H](CC(=O)O)NC2=O` (stereo partly drawn) [I-2494, Ac-PL3-Asp-Npg-B5-Asn-Thr-Aib-Ala-Phe-Asn-PyrS2-3Thi-BztA-Me2Asn-NH2], the IC50 was above 20 µM in assay [1] and 0.102 µM in assay [2].
For `CNC(=O)C[C@H](NC(=O)[C@H](Cc1csc2ccccc12)NC(=O)[C@H](Cc1ccsc1)NC(=O)[C@]12CCN(C1)C(=O)OCCCC=CCCCC1(CCCC=CC[C@]3(CCCN3C(C)=O)C(=O)N[C@@H](CC(=O)O)C(=O)N[C@@H](CC(C)(C)C)C(=O)N1)C(=O)N[C@@H](CC(N)=O)C(=O)N[C@@H]([C@@H](C)O)C(=O)NC(C)(C)C(=O)N[C@@H](C)C(=O)N[C@@H](Cc1ccccc1)C(=O)N[C@@H](CC(N)=O)C(=O)N2)C(N)=O` (stereo partly drawn) [I-2495, Ac-PL3-Asp-Npg-B5-Asn-Thr-Aib-Ala-Phe-Asn-PyrS2-3Thi-BztA-MeAsn-NH2], the values for the IC50 in assay [1] and in assay [2] were above 20 µM and 0.095 µM, respectively.
Turning to `CC(=O)N1CCC[C@]12CC=CCCCC1(CCCC=CCCCOC(=O)N3CC[C@@](C(=O)N[C@@H](Cc4ccsc4)C(=O)N[C@@H](Cc4csc5ccccc45)C(=O)N[C@@H](CC(N)=O)C(N)=O)(C3)NC(=O)[C@H](CC(=O)N(C)C)NC(=O)[C@H](Cc3ccccc3)NC(=O)[C@H](C)NC(=O)C(C)(C)NC(=O)[C@H]([C@@H](C)O)NC(=O)[C@H](CC(N)=O)NC1=O)NC(=O)[C@H](CC(C)(C)C)NC(=O)[C@H](CC(=O)O)NC2=O` (stereo partly drawn) [I-2496, Ac-PL3-Asp-Npg-B5-Asn-Thr-Aib-Ala-Phe-Me2Asn-PyrS2-3Thi-BztA-Asn-NH2], the IC50 in assay [1] was above 20 µM; in assay [2] it was 0.106 µM.
For `CNC(=O)C[C@@H]1NC(=O)[C@H](Cc2ccccc2)NC(=O)[C@H](C)NC(=O)C(C)(C)NC(=O)[C@H]([C@@H](C)O)NC(=O)[C@H](CC(N)=O)NC(=O)C2(CCCC=CCCCOC(=O)N3CC[C@@](C(=O)N[C@@H](Cc4ccsc4)C(=O)N[C@@H](Cc4csc5ccccc45)C(=O)N[C@@H](CC(N)=O)C(N)=O)(C3)NC1=O)CCCC=CC[C@]1(CCCN1C(C)=O)C(=O)N[C@@H](CC(=O)O)C(=O)N[C@@H](CC(C)(C)C)C(=O)N2` (stereo partly drawn) [I-2497, Ac-PL3-Asp-Npg-B5-Asn-Thr-Aib-Ala-Phe-MeAsn-PyrS2-3Thi-BztA-Asn-NH2], in that order: above 20 µM and 0.105 µM.
For the compound `CC(=O)N1CCC[C@]12CC=CCCCC1(CCCC=CCCCOC(=O)N3CC[C@@](C(=O)N[C@@H](Cc4ccccc4)C(=O)N[C@@H](Cc4csc5ccccc45)C(=O)N[C@@H](CC(=O)N4CCOCC4)C(N)=O)(C3)NC(=O)[C@H](CC(C)C)NC(=O)[C@H](Cc3ccccc3)NC(=O)[C@H](C)NC(=O)[C@H](CCC(=O)N(C)C)NC(=O)[C@H](CCC(N)=O)NC(=O)[C@H](CC(=O)O)NC1=O)NC(=O)[C@H](CC1CCCCC1)NC(=O)[C@H](CC(N)=O)NC2=O` (stereo partly drawn) [I-2501, Ac-PL3-Asn-Cha-B5-Asp-Gln-Me2Gln-Ala-Phe-Leu-PyrS2-Phe-BztA-MorphAsn-NH2], the figures for the IC50 in assay [1] and in assay [2] were above 20 µM and 0.154 µM, respectively.
On to `CNC(=O)CC[C@@H]1NC(=O)[C@H](CCC(N)=O)NC(=O)[C@H](CC(=O)O)NC(=O)C2(CCCC=CCCCOC(=O)N3CC[C@@](C(=O)N[C@@H](Cc4ccccc4)C(=O)N[C@@H](Cc4csc5ccccc45)C(=O)N[C@@H](CC(=O)N4CCOCC4)C(N)=O)(C3)NC(=O)[C@H](CC(C)C)NC(=O)[C@H](Cc3ccccc3)NC(=O)[C@H](C)NC1=O)CCCC=CC[C@]1(CCCN1C(C)=O)C(=O)N[C@@H](CC(N)=O)C(=O)N[C@@H](CC1CCCCC1)C(=O)N2` (stereo partly drawn) [I-2502, Ac-PL3-Asn-Cha-B5-Asp-Gln-MeGln-Ala-Phe-Leu-PyrS2-Phe-BztA-MorphAsn-NH2], for which the IC50 was above 20 µM in assay [1] and 0.214 µM in assay [2].
As for `CC(=O)N1CCC[C@]12CC=CCCCC1(CCCC=CCCCOC(=O)N3CC[C@@](C(=O)N[C@@H](Cc4ccccc4)C(=O)N[C@@H](Cc4csc5ccccc45)C(=O)N[C@@H](CC(=O)N4CCOCC4)C(N)=O)(C3)NC(=O)[C@H](CC(C)C)NC(=O)[C@H](Cc3ccccc3)NC(=O)[C@H](C)NC(=O)[C@H](CCC(N)=O)NC(=O)[C@H](CCC(N)=O)NC(=O)[C@H](CC(=O)O)NC1=O)NC(=O)[C@H](CC1CCCCC1)NC(=O)[C@H](CC(N)=O)NC2=O` (stereo partly drawn) [I-2504, Ac-PL3-Asn-Cha-B5-Asp-Gln-Gln-Ala-Phe-Leu-PyrS2-Phe-BztA-MorphAsn-NH2], the IC50 is above 20 µM in assay [1] and 0.21 µM in assay [2].
As to `CC(=O)N1CCC[C@]12CC=CCCCCC1(CCCCC=CCCOC(=O)N3CC[C@@](C(=O)N[C@@H](Cc4ccccc4C(F)(F)F)C(=O)N[C@@H](Cc4csc5ccccc45)C(=O)N[C@@H](CCC(N)=O)C(N)=O)(C3)NC(=O)[C@H](CC(C)C)NC(=O)[C@H](Cc3ccccc3)NC(=O)[C@H](C)NC(=O)[C@H](C)NC(=O)[C@H](Cc3cccc(C(=O)O)c3)NC(=O)[C@H](CC(=O)O)NC1=O)NC(=O)[C@H](CC(C)(C)C)NC(=O)[C@H](CC(=O)O)NC2=O` (stereo partly drawn) [I-2508, Ac-PL3-Asp-Npg-B6-Asp-3COOHF-Ala-Ala-Phe-Leu-PyrS1-2F3MeF-BztA-Gln-NH2], the results for the IC50 in assay [1] and in assay [2] were 27.3 µM and 0.152 µM, respectively.
For `CC(=O)N1CCC[C@]12CC=CCCCCC1(CCCCC=CCCOC(=O)N3CC[C@@](C(=O)N[C@@H](Cc4ccccc4C(F)(F)F)C(=O)N[C@@H](Cc4csc5ccccc45)C(=O)N[C@@H](C)C(N)=O)(C3)NC(=O)[C@H](CC(C)C)NC(=O)[C@H](Cc3ccccc3)NC(=O)[C@H](C)NC(=O)[C@H](CCC(N)=O)NC(=O)[C@H](Cc3cccc(C(=O)O)c3)NC(=O)[C@H](CC(=O)O)NC1=O)NC(=O)[C@H](CC(C)(C)C)NC(=O)[C@H](CC(=O)O)NC2=O` (stereo partly drawn) [I-2510, Ac-PL3-Asp-Npg-B6-Asp-3COOHF-Gln-Ala-Phe-Leu-PyrS1-2F3MeF-BztA-Ala-NH2], in that order: 7.8 µM and 0.024 µM.
With `CC(=O)N1CCC[C@]12CC=CCCCCC1(CCCCC=CCCCOC(=O)N3CC[C@@](C(=O)N[C@@H](Cc4ccccc4C(F)(F)F)C(=O)N[C@@H](Cc4csc5ccccc45)C(=O)N[C@@H](CCC(N)=O)C(N)=O)(C3)NC(=O)[C@H](CC(C)C)NC(=O)[C@H](Cc3ccccc3)NC(=O)[C@H](C)NC(=O)[C@H](C)NC(=O)[C@H](Cc3cccc(C(=O)O)c3)NC(=O)[C@H](CC(=O)O)NC1=O)NC(=O)[C@H](CC(C)(C)C)NC(=O)[C@H](CC(=O)O)NC2=O` (stereo partly drawn) [I-2513, Ac-PL3-Asp-Npg-B6-Asp-3COOHF-Ala-Ala-Phe-Leu-PyrS2-2F3MeF-BztA-Gln-NH2], the IC50 in assay [1] is above 20 µM; in assay [2], 0.066 µM.
Consider `CC(=O)N1CCC[C@]12CC=CCCCCC1(CCCCC=CCCCOC(=O)N3CC[C@@](C(=O)N[C@@H](Cc4ccccc4C(F)(F)F)C(=O)N[C@@H](Cc4csc5ccccc45)C(=O)N[C@@H](C)C(N)=O)(C3)NC(=O)[C@H](CC(C)C)NC(=O)[C@H](Cc3ccccc3)NC(=O)[C@H](C)NC(=O)[C@H](CCC(N)=O)NC(=O)[C@H](Cc3cccc(C(=O)O)c3)NC(=O)[C@H](CC(=O)O)NC1=O)NC(=O)[C@H](CC(C)(C)C)NC(=O)[C@H](CC(=O)O)NC2=O` (stereo partly drawn) [I-2515, Ac-PL3-Asp-Npg-B6-Asp-3COOHF-Gln-Ala-Phe-Leu-PyrS2-2F3MeF-BztA-Ala-NH2], for which the IC50 in assay [1] was above 20 µM; in assay [2], 1.61 µM.
Turning to `CC(=O)N1CCC[C@]12CC=CCCCCC1(CCCCC=CCCCOC(=O)N3CC[C@@](C(=O)N[C@@H](Cc4ccccc4C(F)(F)F)C(=O)N[C@@H](Cc4csc5ccccc45)C(=O)N[C@@H](C)C(N)=O)(C3)NC(=O)[C@H](CC(C)C)NC(=O)[C@H](Cc3ccccc3)NC(=O)[C@H](C)NC(=O)[C@H](CCC(N)=O)NC(=O)[C@H](Cc3cccc(C(=O)O)c3)NC(=O)[C@H](CC(=O)O)NC1=O)NC(=O)[C@H](CC(C)(C)C)NC(=O)[C@H](CC(=O)O)NC2=O` (stereo partly drawn) [I-2517, Ac-PL3-Asp-Npg-B6-Asp-3COOHF-Gln-Ala-Phe-Leu-PyrS2-2F3MeF-BztA-Ala-NH2], the IC50 in assay [1] came to 30 µM; in assay [2], 0.061 µM.
In the same order, the values of `CC(=O)N1CCC[C@]12CC=CCCCCC1(CCCCC=CCOC(=O)N3CC[C@@](C(=O)N[C@@H](Cc4ccccc4C(F)(F)F)C(=O)N[C@@H](Cc4csc5ccccc45)C(=O)N[C@@H](CCC(N)=O)C(N)=O)(C3)NC(=O)[C@H](CC(C)C)NC(=O)[C@H](Cc3ccccc3)NC(=O)[C@H](C)NC(=O)[C@H](C)NC(=O)[C@H](Cc3cccc(C(=O)O)c3)NC(=O)[C@H](CC(=O)O)NC1=O)NC(=O)[C@H](CC(C)(C)C)NC(=O)[C@H](CC(=O)O)NC2=O` (stereo partly drawn) [I-2518, Ac-PL3-Asp-Npg-B6-Asp-3COOHF-Ala-Ala-Phe-Leu-PyrS-2F3MeF-BztA-Gln-NH2] are above 20 µM and 0.212 µM.
